Like-named read-outs stand apart in the source and are kept apart here.
Columns and labels:
[1] = target: T1, citrate synthase (CS) (Sus scrofa, UniProt P00889); test: Activity of citrate synthase in pig brain mitochondria; format: biochemical; details: mean ± SD, N = 3
T1 construct: used to determinate mitochondrial enzymes activities (ETC complexes, CS, malate dehydrogenase, and MAO); from tissue; host or cells: pig brain cortex mitochondria (frozen, ultrasonicated)
T1 sequence (P00889 28-464): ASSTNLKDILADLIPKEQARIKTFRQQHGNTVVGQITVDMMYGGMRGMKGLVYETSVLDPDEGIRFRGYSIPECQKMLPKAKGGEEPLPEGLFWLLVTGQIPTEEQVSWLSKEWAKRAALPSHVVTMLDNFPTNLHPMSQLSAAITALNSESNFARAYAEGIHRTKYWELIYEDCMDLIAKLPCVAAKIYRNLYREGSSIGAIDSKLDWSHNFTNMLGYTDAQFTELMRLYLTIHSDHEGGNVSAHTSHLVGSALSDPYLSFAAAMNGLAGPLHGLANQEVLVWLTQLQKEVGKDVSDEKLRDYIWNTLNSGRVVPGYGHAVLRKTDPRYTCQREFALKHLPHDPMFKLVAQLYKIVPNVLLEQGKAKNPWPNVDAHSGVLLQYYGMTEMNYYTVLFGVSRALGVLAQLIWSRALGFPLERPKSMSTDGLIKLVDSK
Procedure: Ultrasonicated mitochondria were incubated with the tested drugs for 30 min at 30 °C, with a corresponding drug-free control for every measurement. The activities of mitochondrial enzymes were determined as the absorbance measured with a GENESYS 180 UV-Vis spectrophotometer (Thermo Fisher Scientific, Waltham, MA, USA). […] […] […] An ATP standard curve was constructed.

[2] = target: T2, MAO-B (Sus scrofa, UniProt Q6PLK3); test: MAO-B activity, radiolabeled [14C]PEA substrate, pig brain mitochondria; format: biochemical; details: for Hill Slope, MAO-B / IC50 / Residual Activity, MAO-B: mean ± SEM, four measurements
T2 construct: from tissue; host or cells: pig brain cortex mitochondria
T2 sequence (Q6PLK3 1-520): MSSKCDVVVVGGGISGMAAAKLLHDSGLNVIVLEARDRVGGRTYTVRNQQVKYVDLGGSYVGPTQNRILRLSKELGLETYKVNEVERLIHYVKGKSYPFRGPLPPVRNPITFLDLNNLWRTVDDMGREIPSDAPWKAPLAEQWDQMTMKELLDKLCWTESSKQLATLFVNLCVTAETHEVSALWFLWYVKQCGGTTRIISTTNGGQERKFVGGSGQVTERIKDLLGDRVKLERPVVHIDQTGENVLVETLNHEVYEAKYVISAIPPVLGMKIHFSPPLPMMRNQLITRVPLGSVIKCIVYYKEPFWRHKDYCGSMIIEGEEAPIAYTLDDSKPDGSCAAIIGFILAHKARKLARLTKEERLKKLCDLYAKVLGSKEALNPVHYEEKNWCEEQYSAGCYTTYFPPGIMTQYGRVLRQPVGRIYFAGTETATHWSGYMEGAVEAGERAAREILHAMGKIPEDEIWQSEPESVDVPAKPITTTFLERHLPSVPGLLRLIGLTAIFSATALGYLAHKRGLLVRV
Procedure: (§1) KH buffer was used to preincubate mitochondria (final concentration of 800 µg/mL) with the tested drugs (concentration range of 0.1–300 µmol/L). MAO enzymatic activity was measured using radiolabeled substrates ([^3H]serotonin for MAO-A and [^14C]PEA for MAO-B). The reaction was terminated with hydrochloric acid, the organic phase was separated, and the radioactivity was determined by liquid scintillation counting (LS 6000IC, Beckman Instruments, Inc., Fullerton, CA, USA).
(§2) Four-parametric logistic regression was used to analyze inhibition of respiratory rate and MAO activity to determine half-maximal inhibitory concentration (IC50), residual activity, and Hill slope. Prism software from GraphPad (San Diego, CA, USA) was used for this analysis.

[3] = target: T3, MAO-A (Sus scrofa, UniProt Q6Q2J0); test: MAO-A activity, radiolabeled [3H]serotonin substrate, pig brain mitochondria; format: biochemical
T3 construct: from tissue; host or cells: pig brain cortex mitochondria
T3 sequence (Q6Q2J0 1-527): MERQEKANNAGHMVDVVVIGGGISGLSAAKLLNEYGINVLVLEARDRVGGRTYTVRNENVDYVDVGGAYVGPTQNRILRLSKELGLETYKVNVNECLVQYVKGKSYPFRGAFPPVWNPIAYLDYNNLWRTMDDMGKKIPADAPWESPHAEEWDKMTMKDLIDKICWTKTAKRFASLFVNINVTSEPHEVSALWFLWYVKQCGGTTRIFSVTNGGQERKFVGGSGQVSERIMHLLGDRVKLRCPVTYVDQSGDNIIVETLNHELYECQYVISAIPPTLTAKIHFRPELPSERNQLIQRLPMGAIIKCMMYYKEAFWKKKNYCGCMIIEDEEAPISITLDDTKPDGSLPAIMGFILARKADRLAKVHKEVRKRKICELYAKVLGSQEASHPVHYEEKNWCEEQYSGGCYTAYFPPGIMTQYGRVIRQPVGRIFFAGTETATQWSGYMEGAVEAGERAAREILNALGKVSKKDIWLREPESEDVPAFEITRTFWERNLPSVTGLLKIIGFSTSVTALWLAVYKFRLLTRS
Procedure: as §1, §2

[4] = tested on: complex II-linked respiration in isolated mitochondria; test: Complex II-linked respiration, high-resolution respirometry in isolated mitochondria; format: biochemical, pig
Procedure: (§3) The mitochondrial fraction was isolated and purified from the pig brain cortex. For high-resolution respirometry and ATP assays, freshly prepared mitochondria were kept on ice. Part of the mitochondria was frozen, stored at −70 °C, and used to determinate mitochondrial enzymes activities (ETC complexes, CS, malate dehydrogenase, and MAO).
The high-resolution Oxygraph-2k (Oroboros Instruments Corp, Innsbruck, Austria) was used to measure mitochondrial oxygen consumption rate. […] The final protein concentration was 0.05–0.14 mg/mL.
(§4) Respiration rate (oxygen flux) was quantified as the number of pmol of oxygen consumed per second per mg of a protein.
as §2

[5] = target: T4, malate dehydrogenase (MDH) (Sus scrofa, UniProt P00346); test: Activity of malate dehydrogenase in pig brain mitochondria; format: biochemical; details: mean ± SD, N = 3
T4 construct: used to determinate mitochondrial enzymes activities (ETC complexes, CS, malate dehydrogenase, and MAO); from tissue; host or cells: pig brain cortex mitochondria (frozen, ultrasonicated)
T4 sequence (P00346 25-338): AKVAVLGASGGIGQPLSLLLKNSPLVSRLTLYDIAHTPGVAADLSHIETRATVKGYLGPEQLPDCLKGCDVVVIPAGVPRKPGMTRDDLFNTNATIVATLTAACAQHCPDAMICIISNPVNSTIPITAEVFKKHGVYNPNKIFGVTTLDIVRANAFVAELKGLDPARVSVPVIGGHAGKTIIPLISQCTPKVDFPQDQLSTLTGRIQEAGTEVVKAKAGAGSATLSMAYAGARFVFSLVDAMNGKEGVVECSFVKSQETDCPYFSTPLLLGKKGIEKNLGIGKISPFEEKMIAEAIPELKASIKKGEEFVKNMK
Procedure: Ultrasonicated mitochondria were incubated with the tested drugs for 30 min at 30 °C, with a corresponding drug-free control for every measurement. The activities of mitochondrial enzymes were determined as the absorbance measured with a GENESYS 180 UV-Vis spectrophotometer (Thermo Fisher Scientific, Waltham, MA, USA). The conversion of oxaloacetate to malate was used to measure malate dehydrogenase (MDH) activity. The reaction was started by adding oxaloacetate and nicotinamide adenine dinucleotide (NADH) (measured at 340 nm for 3 min). […] […] An ATP standard curve was constructed.

[6] = tested on: complex I-linked respiration in isolated mitochondria; test: Complex I-linked respiration, high-resolution respirometry in isolated mitochondria; format: biochemical, pig; details: for IC50: four-parameter logistic; for IC50 / Residual Activity, complex I-linked respiration: mean ± SEM, four measurements
Procedure: as §3
The high-resolution Oxygraph-2k (Oroboros Instruments Corp, Innsbruck, Austria) was used to measure mitochondrial oxygen consumption rate.
as §4, §2

SMILES | CS (% of control) ([1]; 10 μM) | CS (% of control) ([1]; 100 μM) | Inhibition (partial/full), MAO-B [2] | Hill Slope, MAO-B [2] | IC50 [2] [µM] | Residual Activity, MAO-B [2] [rel.u.] | Inhibition (partial/full), MAO-A [3] | IC50 ([3]; mean ± SEM, four measurements) [µM] | Residual Activity, MAO-A ([3]; mean ± SEM, four measurements) [rel.u.] | MDH (% of control) ([5]; 10 μM) | MDH (% of control) ([5]; 100 μM) | Inhibition (partial/full), complex I-linked respiration [6] | IC50 [6] [µM] | Residual Activity, complex I-linked respiration [6] [rel.u.] | other results
CC(NC(C)(C)C)C(=O)c1cccc(Cl)c1 (stereo not shown) [bupropion] | 105.6 ± 1.29 % of control | 99.5 ± 0.93 % of control | partial | 1.68 ± 0.20 | 31.5 ± 3.32 | 0.410 ± 0.018 | partial | 20.1 ± 5.68 | 0.235 ± 0.050 | 99.2 ± 2.90 % of control | 99.6 ± 2.72 % of control | – | – | – | Inhibition (partial/full), MAO-B ([2]; listed as BUP): partial MAO-B inhibitors; Inhibition (partial/full), MAO-A ([3]; listed as BUP): partial inhibitors; Inhibition (partial/full), complex II-linked respiration [4]: partial; IC50 ([4]; four-parameter logistic, mean ± SEM, four measurements): 10.6 ± 4.49 µM; Inhibition (partial/full), complex II-linked respiration ([4]; listed as BUP): weak partial inhibitor; Residual Activity, complex II-linked respiration ([4]; mean ± SEM, four measurements): 0.690 ± 0.045 rel.u.
Fc1ccc([C@@H]2CCNC[C@H]2COc2ccc3c(c2)OCO3)cc1 [paroxetine] | 105.8 ± 1.69 % of control | 98.4 ± 0.85 % of control | full | 1.06 ± 0.10 | 2.19 ± 0.21 | 0.015 ± 0.021 | full | 0.47 ± 0.06 | 0.007 ± 0.017 | 100.1 ± 2.22 % of control | 97.9 ± 1.71 % of control | partial | 26.7 ± 6.73 | 0.672 ± 0.029 | Inhibition (partial/full), MAO-B ([2]; listed as PAR): full inhibitors; Inhibition (partial/full), MAO-A ([3]; listed as PAR): full inhibitors; Hill Slope, MAO-A ([3]; mean ± SEM, four measurements): 1.65 ± 0.22
CN(C)CCC[C@@]1(c2ccc(F)cc2)OCc2cc(C#N)ccc21 [escitalopram] | – | – | full | – | 15.2 ± 2.23 | – | full | 8.78 ± 2.27 | – | – | – | partial | 0.14 ± 0.08 | 0.774 ± 0.015 | Inhibition (partial/full), MAO-B ([2]; listed as ESC): full inhibitors; Inhibition (partial/full), MAO-A ([3]; listed as ESC): full inhibitors
